Measured values as given in paper PMC11571215, “Optimization of Antiproliferative Properties of Triimine Copper(II) Complexes” (Journal of Medicinal Chemistry, 2024).
Where two headings read alike, the source gives them in different places.

Key:
Format in all cases: cell-based, human
HCT116-DoxR cells [1] = test: Autophagy induction (CYTO-ID green, flow cytometry); conditions: 48 h; complexes at IC50, Dox 6 μM, Cis 5 μM, rapamycin 1500 nM
Source text: Furthermore, previous studies have shown that complexes containing terpyridine derivatives have the ability to trigger both apoptosis and autophagy cell death mechanisms in cancer cells simultaneously.[38] This convergence of death pathways may arise from an adaptive response of the heterogeneous tumor cell population.[38] In this context, understanding the mechanism by which cells lose viability in the presence of the two Cu(II) complexes with the simultaneous induction of apoptosis and autophagy becomes crucial. Autophagy is a highly conserved catabolic process crucial for maintaining cellular homeostasis but is also associated with type II programmed cell death.[75] It involves intracellular degradation through autophagolysosomes responsible for breaking down luminal content and enabling recycling of cellular components.[76],[77] The assessment of the complexes’ ability to induce autophagy was conducted using flow cytometry, employing the CYTO-ID green detection reagent. This probe emits green fluorescence, marking the autophagic vacuoles within the cell. Higher fluorescence indicates a greater proportion of autophagolysosomes.[78] Three positive controls were used: Dox, Cis, and rapamycin (1500 nM), whose concentration was previously optimized for the HCT116-DoxR cell line in the laboratory.[64] Rapamycin is known to induce autophagy through its mechanistic target, mTOR.
Cell death via autophagy was evaluated using the Autophagy Assay Kit (ab139484; Abcam, Cambridge, United Kingdom), according to the manufacturers’ instructions. HCT116-DoxR cells were seeded at a density of 1 × 10^5 cells/mL in 6-well plates for 24 h, under the same conditions described before. After this incubation period, the culture medium was replaced with a fresh medium containing the copper complexes under evaluation at their IC50 concentration. A 0.1% (v/v) DMSO solution was used as the negative (vehicle) control, and 6 μM Dox and 5 μM Cis were used as positive controls. The cells were incubated again for 48 h. Rapamycin (1500 nM) was also added as a positive control, and it was added 18 h before the end of the 48 h incubation. After this period, the supernatant was discarded, and each well was washed with PBS 1×. Subsequently, cells were detached using TrypLE Express and washed with phenol red-free DMEM medium containing 5% (v/v) FBS. Cells were incubated with Green Stain Solution in phenol red-free DMEM medium containing 5% (v/v) FBS for 30 min at RT. After this period, the samples were washed and then resuspended in Assay Buffer 1×. The samples were analyzed using an Attune Acoustic Focusing Flow Cytometer (Life Technologies, Carlsbad, USA), and the results were analyzed via the Attune Cytometric software.

HCT116-DoxR cells [2] = test: ROS production (H2DCF-DA, flow cytometry); conditions: 48 h; complexes at IC50, Dox 6 μM, Cis 5 μM
Source text: The literature widely describes the relationship between the induction of these types of programmed cell death and the production of reactive oxygen species (ROS).[79]−[81] ROS can arise from endogenous or exogenous sources and play a role in carcinogenesis and tumor development, causing DNA damage.[81],[82] The accumulation of high ROS levels results in oxidative stress in cancer cells, a condition that can be exploited by surpassing the intrinsic antioxidant capacity of tumor cells as a targeted therapeutic approach.[75] It is known that Cu(II) complexes induce ROS production.[38] In this regard, the production of reactive oxygen species was quantified in HCT116-DoxR cells using the 2′,7′-dichlorodihydrofluorescein diacetate (H2DCF-DA) probe, which is rapidly oxidized in the presence of ROS, generating the compound 2′,7′-dichlorodihydrofluorescein (DCF), whose fluorescence can be detected by flow cytometry.[71] The fluorescence intensity is directly proportional to the amount of intracellular ROS. […] TBHP is a widely used organic peroxide in oxidative stress studies as it activates caspase-mediated apoptosis and ROS production.[83]
The quantification of reactive oxygen species (ROS) production was performed using the probe dichlorofluorescein diacetate (H2DCF-DA) (molecular probes: reactive oxygen species (ROS) detection reagents, Invitrogen, USA). Briefly, HCT116-DoxR cells were seeded in six-well plates at a density of 1 × 10^5 cells/mL and incubated for 24 h under the conditions mentioned before. After the incubation period, the medium was replaced with fresh medium containing the tested copper complexes at their IC50 concentrations. 0.1% (v/v) DMSO solution was used as the negative control, and 6 μM Dox, 5 μM Cis, and 42 μM Tertbutyl Hydroperoxide (TBHP) were used as positive controls. The cells were incubated again under the same conditions mentioned above for 48 h. Later, the culture medium was removed, cells were washed with PBS 1× and TrypLE Express to detach them and then they were washed again with PBS 1×. After that, cells were incubated in a solution of 10 μM H2DCF-DA in PBS 1x for 20 min at 37 °C. Subsequently, the samples were analyzed by the Attune Acoustic Focusing Flow Cytometer (Life Technologies, Carlsbad, USA), and the obtained data were processed by the respective software (Attune Cytometric software).

[3] = system: HCT116-DoxR cells (doxorubicin resistant colorectal carcinoma); test: MTS cell viability assay, HCT116-DoxR 2D; conditions: for IC50: 48 h of exposure, MTS, relative IC50, mean + SEM, read-out: IC50 HCT116-DoxR (2D); for SI HCT116-DoxR: ratio IC50 fibroblasts / IC50 HCT116-DoxR
Description: The antiproliferative effect of the Cu(II) complexes in tumor and healthy cell lines was assessed through the MTS assay, a colorimetric method that is widely used to evaluate cellular viability, specifically mitochondrial viability.[53],[54] Cellular viability was determined after 48 h exposure to a concentration range (0.1–50 μM) of Cu(II) complexes in three tumor cell lines. […] Additionally, the viability of healthy primary dermal fibroblasts was performed as a comparison of the complexes’ antiproliferative effects in normal cells.
Cellular viability assays were performed using HCT116, HCT116-DoxR, and A2780 cancer cell lines as well as normal human primary fibroblasts. Cells were seeded at a density of 0.75 × 10^5 cells/mL in 96-well plates and incubated at 37 °C with 5% (v/v) CO2 for 24 h. After this incubation period, the copper complexes were accurately weighed and immediately dissolved in 100% (v/v) dimethyl sulfoxide (DMSO). Subsequently, the complexes were diluted to the final concentration using a cell culture medium. The culture medium in each well was replaced with fresh medium containing varying concentrations of the complexes (ranging from 0.01 to 50 μM). Negative controls contained culture medium with 0.1% (v/v) DMSO, and positive controls contained 0.4 μM Dox.
After an additional 48 h of incubation under the same conditions, cellular viability was assessed using the CellTiter 96 Aqueous One Solution Cell Proliferation Assay kit (Promega, Madison, USA). Metabolically active cells contain mitochondrial dehydrogenases that can reduce 3-(4,5-dimethylthiazol-2-yl)-5-(3-carboxymethoxyphenyl)-2-(4-sulfophenyl)-2H-tetrazolium, the inner salt (MTS) to formazan. The absorbance of formazan, measured at 490 nm in a microplate reader (Tecan Infinite M200, Tecan, Männedorf, Switzerland), is directly proportional to the number of viable cells.[104]
The cell viability versus concentration graphics were analyzed using Prism 8 software (GraphPad) to determine the half-maximal inhibitory concentration (IC50) of each complex for the respective cell line. Additionally, the selective index (SI) for each complex was calculated by dividing the IC50 of human fibroblasts by the IC50 values of the tested cancer cell lines.

Question: How did the “increase in autophagic vesicles compared to 0.1% DMSO control” value (HCT116-DoxR cells [1]) turn out when `N.N.[Cl][Pt][Cl]` [Cisplatin] was run?
Answer: increase in green fluorescence intensity

Question: What about the “ROS production higher than DMSO control” value (HCT116-DoxR cells [2]) of the same molecule?
Answer: 2.2 ×

Question: With `[Cl][Cu-3]12([Cl])[n+]3ccccc3-c3cc(-c4cccc5ccccc45)cc([n+]31)-c1cccc[n+]12` [Cu1a] as the molecule, how does the “increase in autophagic vesicles compared to 0.1% DMSO control” value (HCT116-DoxR cells [1]) read?
Answer: approximately 2 fold

Question: What about the “ROS production higher than DMSO control” value (HCT116-DoxR cells [2]) of the same molecule?
Answer: 1.42 ×

Question: And the IC50 [3]?
Answer: 240 ± 20 nM

Question: And the “SI HCT116-DoxR” value [3]?
Answer: 38.6

Question: Which results are given for `[Cl][Cu-3]12([Cl])[n+]3ccccc3-c3cc(-c4ccc5ccccc5c4)cc([n+]31)-c1cccc[n+]12` [Cu1b]?
Answer: increase in autophagic vesicles compared to 0.1% DMSO control (HCT116-DoxR cells [1]): approximately 2 fold; ROS production higher than DMSO control (HCT116-DoxR cells [2]): 1.48 ×; IC50 [3]: 290 ± 20 nM; SI HCT116-DoxR [3]: 45.9

Question: What does the source list for `COc1cccc2c1C(=O)c1c(O)c3c(c(O)c1C2=O)C[C@@](O)(C(=O)CO)C[C@@H]3O[C@H]1C[C@H](N)[C@H](O)[C@H](C)O1` [Doxorubicin]?
Answer: increase in autophagic vesicles compared to 0.1% DMSO control (HCT116-DoxR cells [1]): 2.2 fold; ROS production higher than DMSO control (HCT116-DoxR cells [2]): 1.8 ×; IC50 ([3]; Homo sapiens): > 6000 nM
